Test results from article PMC12254823 (Acta Pharmaceutica Sinica. B, 2025).
Values joined by “and” are separate entries in the source; they are usually repeats but may differ in a detail not shown here. Equal entries are not always repeated.

System: A/WSN/33(H1N1) virus
Test: microbe, parasite or virus in culture
Type: cell-based, influenza A virus
Conditions: not given

Question: What does the source list for `FC(F)(F)c1ccc(NC(=S)NCc2cccc3cn[nH]c23)cc1` [Compound 27, 1-[(1H-Indazol-7-yl)methyl]-3-[4-(trifluoromethyl)phenyl]thiourea]?
Answer: %-inhibition in viral yield reduction assay screening: 94.9%; selectivity index (CC50/EC50): > 12.5

Question: Which “%-inhibition in viral yield reduction assay screening” value does the source give for `COc1ccc(NC(=S)NCc2cccc3cn[nH]c23)cc1OC` [Compound 24, 1-[(1H-Indazol-7-yl)methyl]-3-(3,4-dimethoxyphenyl)thiourea] here?
Answer: The value was 99.9%.

Question: What does the source list for `N#Cc1ccc(NC(=S)NCc2cccc3cn[nH]c23)cc1` [Compound 31, 1-[(1H-indazol-7-yl)methyl]-3-(4-cyanophenyl)thiourea]?
Answer: %-inhibition in viral yield reduction assay screening: 99.9%; selectivity index (CC50/EC50): > 1.73

Same assay, conditions: Influenza A virus, H1N1|WSN, MDCK, read-out: %-inhibition in viral yield reduction assay screening

Question: For `S=C(NCc1cccc2cn[nH]c12)Nc1cccc(Cl)c1Cl` [Compound 23, 1-[(1H-Indazol-7-yl)methyl]-3-(2,3-dichlorophenyl)thiourea], which inhibition at 100 µM is on record?
Answer: Its inhibition at 100 µM is less than 2%.

Question: Which inhibition at 100 µM does the source give for `COc1ccc(/C=C/C(=O)NCc2cccc3cn[nH]c23)cc1` [Compound 14, (E)-N-[(1H-Indazol-7-yl)methyl]-3-(4-methoxyphenyl)acrylamide] here?
Answer: The inhibition at 100 µM was 48.4%.

Question: Which inhibition at 100 µM does the source give for `S=C(NCc1ccccc1)NCc1cccc2cn[nH]c12` [Compound 28, 1-[(1H-Indazol-7-yl)methyl]-3-benzylthiourea] here?
Answer: Its inhibition at 100 µM is less than 2%.

Question: Which inhibition at 100 µM does the source give for `Cc1ccc(NC(=S)NCc2cccc3cn[nH]c23)cc1` [Compound 20, 1-[(1H-Indazol-7-yl)methyl]-3-(p-tolyl)thiourea] here?
Answer: Its inhibition at 100 µM is less than 2%.

Question: Which inhibition at 100 µM does the source give for `S=C(NCc1cccc2cn[nH]c12)Nc1ccc(Br)cc1` [Compound 30, 1-[(1H-Indazol-7-yl)methyl]-3-(4-bromophenyl)thiourea] here?
Answer: The inhibition at 100 µM was less than 2%.

Question: For `O=C(/C=C/c1ccco1)NCc1cccc2cn[nH]c12` [Compound 17, (E)-N-[(1H-Indazol-7-yl)methyl]-3-(furan-2-yl)acrylamide], which inhibition at 100 µM is on record?
Answer: The inhibition at 100 µM was 33.9%.

Question: Which inhibition at 100 µM does the source give for `FC(F)(F)Oc1ccc(NC(=S)NCc2cccc3cn[nH]c23)cc1` [Compound 26, 1-[(1H-Indazol-7-yl)methyl]-3-[4-(trifluoromethoxy)phenyl]thiourea] here?
Answer: The inhibition at 100 µM was less than 2%.

Question: For `FC(F)(F)c1ccc(NC(=S)NCc2cccc3cn[nH]c23)cc1` [Compound 27, 1-[(1H-Indazol-7-yl)methyl]-3-[4-(trifluoromethyl)phenyl]thiourea], which inhibition at 100 µM is on record?
Answer: Its inhibition at 100 µM is greater than 90%.

Question: With `O=C(CNc1ccc(Cl)cc1)Nc1ccccc1C(=O)NCc1cccc2cn[nH]c12` [Compound 6, N-[(1H-Indazol-7-yl)methyl]-2-{2-[(4-chlorophenyl)amino]acetamido}benzamide] as the compound, how does the inhibition at 100 µM read?
Answer: Its inhibition at 100 µM is less than 2%.

Question: With `O=C(CNC1CCCCC1)Nc1ccccc1C(=O)NCc1cccc2cn[nH]c12` [Compound 4, N-[(1H-Indazol-7-yl)methyl]-2-[2-(cyclohexylamino)acetamido]benzamide] as the compound, how does the inhibition at 100 µM read?
Answer: The inhibition at 100 µM was less than 2%.

Question: Which inhibition at 100 µM does the source give for `Cc1ccc(NCC(=O)Nc2ccccc2C(=O)NCc2cccc3cn[nH]c23)cc1` [Compound 2, N-[(1H-Indazol-7-yl)methyl]-2-[2-(p-tolylamino)acetamido]benzamide] here?
Answer: The inhibition at 100 µM was 10.2%.

Question: With `Fc1ccc(NC(=S)NCc2cccc3cn[nH]c23)cc1` [Compound 29, 1-[(1H-Indazol-7-yl)methyl]-3-(4-fluorophenyl)thiourea] as the compound, how does the inhibition at 100 µM read?
Answer: The inhibition at 100 µM was less than 2%.

Question: For `O=C(CNCc1ccccc1)Nc1ccccc1C(=O)NCc1cccc2cn[nH]c12` [Compound 7, N-[(1H-Indazol-7-yl)methyl]-2-[2-(benzylamino)acetamido]benzamide], which inhibition at 100 µM is on record?
Answer: Its inhibition at 100 µM is less than 2%.

Question: With `O=C(/C=C/c1ccc(Br)cc1)NCc1cccc2cn[nH]c12` [Compound 9, (E)-N-[(1H-Indazol-7-yl)methyl]-3-(4-bromophenyl)acrylamide] as the compound, how does the inhibition at 100 µM read?
Answer: Its inhibition at 100 µM is less than 2%.

Question: Which inhibition at 100 µM does the source give for `COc1ccc(NC(=S)NCc2cccc3cn[nH]c23)cc1OC` [Compound 24, 1-[(1H-Indazol-7-yl)methyl]-3-(3,4-dimethoxyphenyl)thiourea] here?
Answer: Its inhibition at 100 µM is greater than 90%.

Question: Which inhibition at 100 µM does the source give for `N#Cc1ccc(NC(=S)NCc2cccc3cn[nH]c23)cc1` [Compound 31, 1-[(1H-indazol-7-yl)methyl]-3-(4-cyanophenyl)thiourea] here?
Answer: Its inhibition at 100 µM is greater than 90%.

Same assay, conditions: Influenza A virus, H1N1|WSN, MDCK, read-out: EC50 viral yield assay

Question: For `FC(F)(F)c1ccc(NC(=S)NCc2cccc3cn[nH]c23)cc1` [Compound 27, 1-[(1H-Indazol-7-yl)methyl]-3-[4-(trifluoromethyl)phenyl]thiourea], which EC50 is on record?
Answer: Its EC50 is 8.03 µM.

Question: For `N#Cc1ccc(NC(=S)NCc2cccc3cn[nH]c23)cc1` [Compound 31, 1-[(1H-indazol-7-yl)methyl]-3-(4-cyanophenyl)thiourea], which EC50 is on record?
Answer: Its EC50 is 14.6 µM.

Same assay, conditions: read-out: EC50 viral yield assay

Question: Which EC50 does the source give for `FC(F)(F)c1ccc(NC(=S)NCc2cccc3cn[nH]c23)cc1` [Compound 27, 1-[(1H-Indazol-7-yl)methyl]-3-[4-(trifluoromethyl)phenyl]thiourea] here?
Answer: The EC50 was 8.03 µM.

Question: For `N#Cc1ccc(NC(=S)NCc2cccc3cn[nH]c23)cc1` [Compound 31, 1-[(1H-indazol-7-yl)methyl]-3-(4-cyanophenyl)thiourea], which EC50 is on record?
Answer: Its EC50 is 14.6 µM.

System: A/HK/1/68(H3N2)
Test: microbe, parasite or virus in culture
Type: cell-based
Conditions: Influenza A virus, H3N2, read-out: EC50 viral yield reduction assay

Question: With `COc1ccc(NC(=S)NCc2cccc3cn[nH]c23)cc1OC` [Compound 24, 1-[(1H-Indazol-7-yl)methyl]-3-(3,4-dimethoxyphenyl)thiourea] as the compound, how does the EC50 read?
Answer: Its EC50 is 540 nM.

System: A/California/7/09(H1N1pdm)
Test: microbe, parasite or virus in culture
Type: cell-based
Conditions: Influenza A virus, read-out: EC50 viral yield reduction assay

Question: With `COc1ccc(NC(=S)NCc2cccc3cn[nH]c23)cc1OC` [Compound 24, 1-[(1H-Indazol-7-yl)methyl]-3-(3,4-dimethoxyphenyl)thiourea] as the compound, how does the EC50 read?
Answer: Its EC50 is 746 nM.

System: B/Florida/04/2006
Test: microbe, parasite or virus in culture
Type: cell-based
Conditions: Influenza B virus, read-out: EC50 viral yield reduction assay

Question: With `COc1ccc(NC(=S)NCc2cccc3cn[nH]c23)cc1OC` [Compound 24, 1-[(1H-Indazol-7-yl)methyl]-3-(3,4-dimethoxyphenyl)thiourea] as the compound, how does the EC50 read?
Answer: Its EC50 is 230 nM.

System: H5 PA-PB1 heterodimeric complex
Test: not given
Type: biochemical, influenza A virus
Conditions: not given

Question: Which “PA-PB1 complex co-immunoprecipitated compared to DMSO control” value does the source give for `COc1ccc(NC(=S)NCc2cccc3cn[nH]c23)cc1OC` [Compound 24, 1-[(1H-Indazol-7-yl)methyl]-3-(3,4-dimethoxyphenyl)thiourea] here?
Answer: Its value is 64.5% ± 6.2% and 64.5%.

System: not listed separately
Test: in vitro
Conditions: dog

Question: For `S=C(NCc1cccc2cn[nH]c12)Nc1cccc(Cl)c1Cl` [Compound 23, 1-[(1H-Indazol-7-yl)methyl]-3-(2,3-dichlorophenyl)thiourea], which CC50 is on record?
Answer: The CC50 was greater than 100 µM.

Question: For `COc1ccc(/C=C/C(=O)NCc2cccc3cn[nH]c23)cc1` [Compound 14, (E)-N-[(1H-Indazol-7-yl)methyl]-3-(4-methoxyphenyl)acrylamide], which CC50 is on record?
Answer: Its CC50 is greater than 100 µM.

Question: For `S=C(NCc1ccccc1)NCc1cccc2cn[nH]c12` [Compound 28, 1-[(1H-Indazol-7-yl)methyl]-3-benzylthiourea], which CC50 is on record?
Answer: The CC50 was greater than 100 µM.

Question: For `Cc1ccc(NC(=S)NCc2cccc3cn[nH]c23)cc1` [Compound 20, 1-[(1H-Indazol-7-yl)methyl]-3-(p-tolyl)thiourea], which CC50 is on record?
Answer: The CC50 was greater than 100 µM.

Question: Which CC50 does the source give for `S=C(NCc1cccc2cn[nH]c12)Nc1ccc(Br)cc1` [Compound 30, 1-[(1H-Indazol-7-yl)methyl]-3-(4-bromophenyl)thiourea] here?
Answer: Its CC50 is greater than 100 µM.

Question: Which CC50 does the source give for `O=C(/C=C/c1ccco1)NCc1cccc2cn[nH]c12` [Compound 17, (E)-N-[(1H-Indazol-7-yl)methyl]-3-(furan-2-yl)acrylamide] here?
Answer: The CC50 was greater than 100 µM.

Question: For `FC(F)(F)Oc1ccc(NC(=S)NCc2cccc3cn[nH]c23)cc1` [Compound 26, 1-[(1H-Indazol-7-yl)methyl]-3-[4-(trifluoromethoxy)phenyl]thiourea], which CC50 is on record?
Answer: The CC50 was greater than 100 µM.

Question: For `FC(F)(F)c1ccc(NC(=S)NCc2cccc3cn[nH]c23)cc1` [Compound 27, 1-[(1H-Indazol-7-yl)methyl]-3-[4-(trifluoromethyl)phenyl]thiourea], which CC50 is on record?
Answer: Its CC50 is greater than 100 µM.

Question: With `O=C(CNc1ccc(Cl)cc1)Nc1ccccc1C(=O)NCc1cccc2cn[nH]c12` [Compound 6, N-[(1H-Indazol-7-yl)methyl]-2-{2-[(4-chlorophenyl)amino]acetamido}benzamide] as the compound, how does the CC50 read?
Answer: Its CC50 is greater than 100 µM.

Question: For `O=C(CNC1CCCCC1)Nc1ccccc1C(=O)NCc1cccc2cn[nH]c12` [Compound 4, N-[(1H-Indazol-7-yl)methyl]-2-[2-(cyclohexylamino)acetamido]benzamide], which CC50 is on record?
Answer: Its CC50 is greater than 100 µM.

Question: Which CC50 does the source give for `Cc1ccc(NCC(=O)Nc2ccccc2C(=O)NCc2cccc3cn[nH]c23)cc1` [Compound 2, N-[(1H-Indazol-7-yl)methyl]-2-[2-(p-tolylamino)acetamido]benzamide] here?
Answer: Its CC50 is greater than 100 µM.

Question: Which CC50 does the source give for `Fc1ccc(NC(=S)NCc2cccc3cn[nH]c23)cc1` [Compound 29, 1-[(1H-Indazol-7-yl)methyl]-3-(4-fluorophenyl)thiourea] here?
Answer: Its CC50 is greater than 100 µM.

Question: Which CC50 does the source give for `O=C(CNCc1ccccc1)Nc1ccccc1C(=O)NCc1cccc2cn[nH]c12` [Compound 7, N-[(1H-Indazol-7-yl)methyl]-2-[2-(benzylamino)acetamido]benzamide] here?
Answer: The CC50 was greater than 50 µM.

Question: For `O=C(/C=C/c1ccc(Br)cc1)NCc1cccc2cn[nH]c12` [Compound 9, (E)-N-[(1H-Indazol-7-yl)methyl]-3-(4-bromophenyl)acrylamide], which CC50 is on record?
Answer: Its CC50 is greater than 100 µM.

Question: With `COc1ccc(NC(=S)NCc2cccc3cn[nH]c23)cc1OC` [Compound 24, 1-[(1H-Indazol-7-yl)methyl]-3-(3,4-dimethoxyphenyl)thiourea] as the compound, how does the CC50 read?
Answer: The CC50 was greater than 100 µM.

Question: Which CC50 does the source give for `N#Cc1ccc(NC(=S)NCc2cccc3cn[nH]c23)cc1` [Compound 31, 1-[(1H-indazol-7-yl)methyl]-3-(4-cyanophenyl)thiourea] here?
Answer: Its CC50 is greater than 25 µM.
